Data reported in article PMC9100673, “Acridine Based N-Acylhydrazone Derivatives as Potential Anticancer Agents: Synthesis, Characterization and ctDNA/HSA Spectroscopic Binding Properties” (Molecules, 2022).

Legend:
hTopo IIα = hTopo IIα (Homo sapiens, UniProt P11388); experiment: Topo IIα kDNA decatenation assay; assay type: biochemical; conditions: 25, 50 and 100 μM
Procedure: The Topo IIα enzyme catalysed the decatenation of catenated kDNA to closed circular decatenated kDNA. In one specific case, linear (L) and nicked-opened (NC) forms of DNA could by observed. […] The m-Amsacrine (AMSA) (lane 2) was the observed band for catenated DNA.
Figure 12 The result of Topo I/IIα activity tests in the presence of derivatives 3a–3d. (A) Electrophoretogram for inhibition relaxation activity of hTopo I (2.5 U) by derivatives 3a–3d in concentrations of 25, 50 and 100 μM (lane 5–16), substrate-free SC pBR322 (0.5 μg) (lane 4), camptothecin (CPT, lane 2) and plasmid+hTopo I control (lane 3). (NOC—nicked-opened DNA form; R—relaxed DNA form; SC—supercoiled DNA form). (B) Electrophoretogram for inhibition decatenation activity of hTopo IIα (0.5 U) by derivatives 3a–3d in concentrations of 25, 50 and 100 μM (lane 5–16), substrate-free catenated kinetoplast DNA (cat kDNA) (0.5 μg) (lane 4), m-Amsacrine (AMSA, lane 2) and plasmid +hTopo IIα control (lane 3). (decat DNA—decatenated DNA; NC—nicked circular DNA form; L—linear DNA form).

A549 cells = experiment: Quantification of cell number and viability (eosin staining, Bürker chamber); assay type: cell-based, human; conditions: 50 μM, 48 h
Procedure: For the assessment of total cell numbers and viability within individual experimental groups, floating and adherent cells were harvested after treatment with the studied compounds and evaluated using a Bürker chamber with eosin staining. A549 cells were plated at a density of 135 × 10^3 cell/well into a 6-well plate and treated with different concentration of derivatives (25 and 50 µM) for 48 h. The total cell number was expressed as a percentage of the untreated control of the total cell number. Viability was expressed as a percentage of viable, eosin negative cells. The results are presented as the average percentage of cells from three independent experiments.

[1] = target: T1, human serum albumin (HSA) (Homo sapiens, UniProt P02768); experiment: HSA fluorescence quenching (steady-state fluorescence titration); assay type: binding; conditions: for KSV, Stern–Volmer quenching constant: HSA 4 μM, pH 7.4; for ΔH / ΔS: van't Hoff plot, 25–35 °C; for blue shift of HSA fluorescence emission maximum: λex 280 nm
T1 construct: purchased Sigma (St. Louis, MO, USA)
Procedure: Human serum albumin (HSA) emission spectra were recorded in the absence and presence of different amounts of acridine derivatives (3a–3d) at a range of 285 to 550 nm upon excitation at 280 nm. The emission maximum of fluorescence intensity of HSA was identified at 340 nm. […] The fluorescence intensity of HSA in the presence of the acridine derivatives decreases in the relation […], with decreases of 58%, 51%, 43% and 38%, respectively. Moreover, the reduction of fluorescence emission of HSA by derivatives 3a–3d was accompanied by an apparent change in the position of the maximum wavelength of the fluorescence emission, with a blue shift of 6 nm (3d) ≈ (3b) < 7 nm (3c) < 8 nm (3a).
The appearance of an isoactinic point at 430 nm might also indicate the existence of an equilibrium between bound and free drugs, with the presence of such an equilibrium possibly emphasizing the formation of the drug–protein complex. Fluorescence quenching can be divided into the two processes of dynamic and static quenching. In dynamic quenching, the fluorophore and quencher are in contact in an excited state, increasing the temperature and resulting in faster diffusion and a higher frequency of collision, which in turn increases the quenching constant. In comparison, static quenching is typical in complexes formed between the fluorophore and quencher in a ground state in which the increasing temperature weakens the stability of the complex. Quantitative analysis was performed by using the Stern–Volmer Equation (1):(1) F0/F=1+KSVQ=1+Kqτ0Q, where F0 and F represent the fluorescence intensity of HSA in the absence and presence of acridine derivatives, respectively. KSV is the Stern–Volmer dynamic quenching constant which was determined from the plot of relative intensity F0/F of fluorescence vs. the concentration of the acridine derivative. Kq is the quenching rate constant of biomolecules, which is known to be around 2.0 × 10^10 M^−1 s^−1, and τ0 is the average lifetime of the fluorophore in the absence of the quencher, with a typical value equal to around 10^−8 for biomolecules. The quenching constant KSV of derivatives 3a–3d were of 10^5 M^−1. The KSV values recorded for derivatives 3a and 3b decreased at increasing temperatures, while those of derivatives 3c and 3d increased at increasing temperatures. The increased KSV values at increasing temperature in the presence of derivative 3c may indicate that the binding forces are mainly hydrophobic (endothermic apolar interactions are strengthened at increasing temperatures). Additionally, the Kq values obtained for HSA of 10^13 M^−1 s^−1 are greater than the limiting diffusion rate constant of diffusional quenching for biopolymers (2.0 × 10^10 M^−1 s^−1).
In order to evaluate the magnitude of the interaction, other parameters such as the binding constant ( Kb) and the number of binding sites (n) on the drug–HSA complex were calculated at three temperatures using Equation (2):(2) logF0−F/F=logKb+nlogQ, where F0 and F are the fluorescence intensity of the fluorophore (HSA) in the absence and presence of the quencher-acridine derivative, and [Q] is the quencher concentration. The values of Kb and n were determined using the linear regression of a plot of log(F0 − F/F) to log[Q] (Figure S3). […] Since the values of Kb were 10^5 M^−1 (3a–3c) or 10^4 M^−1 (3d), it would therefore be suitable for distribution in the plasma in vivo.
Based on the Kb dependency on temperature, it is, therefore, possible to analyse the temperature-dependent thermodynamic parameters which can be considered as responsible for the formation of a complex. […]

Sequence of hTopo IIα (P11388 whole entry): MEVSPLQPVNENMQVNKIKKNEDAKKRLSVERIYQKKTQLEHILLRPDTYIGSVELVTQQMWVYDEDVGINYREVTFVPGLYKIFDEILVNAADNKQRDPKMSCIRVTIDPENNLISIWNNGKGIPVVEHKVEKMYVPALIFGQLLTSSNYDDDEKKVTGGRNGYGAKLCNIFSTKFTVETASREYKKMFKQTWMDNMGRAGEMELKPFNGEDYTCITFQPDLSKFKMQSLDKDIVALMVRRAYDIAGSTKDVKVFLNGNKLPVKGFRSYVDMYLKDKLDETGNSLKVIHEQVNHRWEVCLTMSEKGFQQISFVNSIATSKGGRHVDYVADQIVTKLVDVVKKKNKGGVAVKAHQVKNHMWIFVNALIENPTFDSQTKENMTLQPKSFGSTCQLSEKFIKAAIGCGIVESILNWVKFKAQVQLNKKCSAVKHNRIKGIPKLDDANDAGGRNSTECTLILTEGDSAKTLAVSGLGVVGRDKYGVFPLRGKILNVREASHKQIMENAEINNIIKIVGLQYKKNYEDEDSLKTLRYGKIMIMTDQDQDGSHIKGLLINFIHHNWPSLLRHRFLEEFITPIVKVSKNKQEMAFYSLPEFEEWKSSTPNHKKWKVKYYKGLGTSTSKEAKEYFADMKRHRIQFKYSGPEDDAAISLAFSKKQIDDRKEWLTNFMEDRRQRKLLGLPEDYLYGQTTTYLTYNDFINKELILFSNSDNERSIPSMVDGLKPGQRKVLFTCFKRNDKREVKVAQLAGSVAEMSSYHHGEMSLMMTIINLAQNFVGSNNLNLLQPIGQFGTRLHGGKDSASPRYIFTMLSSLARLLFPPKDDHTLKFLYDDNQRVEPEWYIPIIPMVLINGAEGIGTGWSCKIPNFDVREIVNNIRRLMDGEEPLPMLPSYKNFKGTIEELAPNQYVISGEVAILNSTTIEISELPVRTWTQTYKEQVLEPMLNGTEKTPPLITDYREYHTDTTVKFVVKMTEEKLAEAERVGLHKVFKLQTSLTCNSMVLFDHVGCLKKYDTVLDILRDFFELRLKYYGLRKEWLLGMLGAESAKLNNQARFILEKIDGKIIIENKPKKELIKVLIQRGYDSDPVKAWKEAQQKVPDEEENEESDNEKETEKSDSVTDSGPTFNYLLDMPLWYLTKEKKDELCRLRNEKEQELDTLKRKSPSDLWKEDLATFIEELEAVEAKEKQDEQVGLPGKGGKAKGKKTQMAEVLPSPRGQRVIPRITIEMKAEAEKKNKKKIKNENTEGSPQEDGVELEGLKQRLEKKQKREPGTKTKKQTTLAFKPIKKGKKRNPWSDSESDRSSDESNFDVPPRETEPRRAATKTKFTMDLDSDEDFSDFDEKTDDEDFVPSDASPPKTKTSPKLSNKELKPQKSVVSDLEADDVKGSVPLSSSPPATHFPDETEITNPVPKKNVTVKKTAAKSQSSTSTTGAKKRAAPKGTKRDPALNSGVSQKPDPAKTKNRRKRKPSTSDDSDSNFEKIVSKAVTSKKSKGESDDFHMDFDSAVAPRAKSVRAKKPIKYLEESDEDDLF
T1 sequence (P02768 25-609): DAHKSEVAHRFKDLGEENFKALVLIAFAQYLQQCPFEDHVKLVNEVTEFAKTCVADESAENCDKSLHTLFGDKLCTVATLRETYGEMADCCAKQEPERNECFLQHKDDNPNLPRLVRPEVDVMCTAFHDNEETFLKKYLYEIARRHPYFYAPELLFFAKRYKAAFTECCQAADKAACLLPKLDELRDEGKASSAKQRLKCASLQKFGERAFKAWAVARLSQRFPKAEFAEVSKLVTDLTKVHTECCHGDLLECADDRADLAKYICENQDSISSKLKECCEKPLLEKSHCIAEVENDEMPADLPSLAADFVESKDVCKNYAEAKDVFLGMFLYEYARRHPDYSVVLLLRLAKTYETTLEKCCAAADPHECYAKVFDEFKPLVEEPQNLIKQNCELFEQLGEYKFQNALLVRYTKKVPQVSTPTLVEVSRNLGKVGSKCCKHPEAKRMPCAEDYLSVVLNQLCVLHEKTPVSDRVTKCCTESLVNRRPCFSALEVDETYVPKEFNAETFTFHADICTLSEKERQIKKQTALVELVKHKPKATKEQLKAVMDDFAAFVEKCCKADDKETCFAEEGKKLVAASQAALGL

inhibition of decatenation activity of Topo IIα (hTopo IIα) | Kq, bimolecular quenching rate constant ([1]; 25 °C) | n, number of binding sites ([1]; 25 °C) | ΔG ([1]; 25 °C) | KSV, Stern–Volmer quenching constant ([1]; 25 °C) | Kq, bimolecular quenching rate constant ([1]; 30 °C) | n, number of binding sites ([1]; 30 °C) | ΔG ([1]; 30 °C) | KSV, Stern–Volmer quenching constant ([1]; 30 °C) | Kq, bimolecular quenching rate constant ([1]; 35 °C) | n, number of binding sites ([1]; 35 °C) | ΔG ([1]; 35 °C) | KSV, Stern–Volmer quenching constant ([1]; 35 °C) | ΔH [1] | ΔS [1] | KSV for the HSA-3a complex ([1]; without site marker) | Kb for the HSA-3a complex ([1]; without site marker) | blue shift of HSA fluorescence emission maximum [1] | SMILES | decrease of viability of A549 cells vs control (A549 cells) | reduction of total cell number vs control (A549 cells)
No obvious inhibitory effects | 2.67e+13 M⁻¹ s⁻¹ | 1.068 | -7.918 kcal/mol | 267000 M⁻¹ | 2.68e+13 M⁻¹ s⁻¹ | 1.054 | -7.878 kcal/mol | 268000 M⁻¹ | 2.61e+13 M⁻¹ s⁻¹ | 1.023 | -7.837 kcal/mol | 261000 M⁻¹ | -10.33 kcal/mol | −33.80 ×10^−3 kJ mol^−1 K^−1 | 267000 M⁻¹ | 610000 M⁻¹ | 8 nm | O=C(N/N=C/c1cccc2cc3ccccc3nc12)c1ccccc1 [3a, N′-[(E)-(Acridin-4-yl)methylidene]benzohydrazide] | 34% | approximately 94%
No obvious inhibitory effects | 1.51e+13 M⁻¹ s⁻¹ | 1.079 | -7.66 kcal/mol | 151000 M⁻¹ | 1.57e+13 M⁻¹ s⁻¹ | 1.061 | -7.61 kcal/mol | 157000 M⁻¹ | 1.37e+13 M⁻¹ s⁻¹ | 1.039 | -7.557 kcal/mol | 137000 M⁻¹ | -10.74 kcal/mol | −43.24 ×10^−3 kJ mol^−1 K^−1 | – | – | ~6 nm | O=C(N/N=C/c1cccc2cc3ccccc3nc12)c1ccc(F)cc1 [3b, N′-[(E)-Acridin-4-ylmethylidene]-4-fluorobenzohydrazide] | – | –
partial inhibition | 2.29e+13 M⁻¹ s⁻¹ | 0.888 | -6.427 kcal/mol | 229000 M⁻¹ | 2.48e+13 M⁻¹ s⁻¹ | 0.925 | -7.108 kcal/mol | 248000 M⁻¹ | 2.62e+13 M⁻¹ s⁻¹ | 1.030 | -7.787 kcal/mol | 262000 M⁻¹ | 34.07 kcal/mol | 568.32 ×10^−3 kJ mol^−1 K^−1 | – | – | 7 nm | O=C(N/N=C/c1cccc2cc3ccccc3nc12)c1ccc(Cl)cc1 [3c, N′-[(E)-Acridin-4-ylmethylidene]-4-chlorobenzohydrazide] | 14% | ~91%
partial inhibition | 1.16e+13 M⁻¹ s⁻¹ | 1.052 | -7.249 kcal/mol | 116000 M⁻¹ | 2.06e+13 M⁻¹ s⁻¹ | 0.917 | -6.828 kcal/mol | 206000 M⁻¹ | 2.42e+13 M⁻¹ s⁻¹ | 0.846 | -6.408 kcal/mol | 242000 M⁻¹ | -32.361 kcal/mol | −352.39 ×10^−3 kJ mol^−1 K^−1 | – | – | 6 nm | O=C(N/N=C/c1cccc2cc3ccccc3nc12)c1ccc(Br)cc1 [3d, N′-[(E)-Acridin-4-ylmethylidene]-4-bromobenzohydrazide] | – | –
